pIC50: −log10 of the molar value.
Tests used:
[1] = biological target: Cyclin-dependent kinase 2/cyclin A (Homo sapiens, UniProt P24941); assay: Inhibition of CDK2/cyclin A; format: protein-complex assay
[2] = tested on: A2780; assay: Antiproliferative activity against human A2780 cells; format: functional, cell-based

| pIC50 [1] | pIC50 [2] | Structure (SMILES) |
| --- | --- | --- |
| 7.57 | 5.80 | C[C@H](C(=O)Nc1cc(C2CC2)n[nH]1)c1ccc(N2CC[C@@H](O)C2=O)cc1 |
| 7.57 | 5.66 | C[C@H](C(=O)Nc1cc(C2CC2)n[nH]1)c1ccc(N2CC[C@H](O)C2=O)cc1 |

— ChEMBL document CHEMBL1147835, “A practical synthesis of the major 3-hydroxy-2-pyrrolidinone metabolite of a potent CDK2/cyclin A inhibitor” (Bioorg Med Chem Lett, 2006)
